Measured values from patent US8865623B2, “Herbicidally active cyclic diones and derivatives thereof, processes for their preparation, compositions, and method of controlling weeds” (Syngenta Limited, priority 2009, dated 2014).

Key:
Format in all cases: in vivo
[1] = system: Alopecurus myosuroides (ALOMY); test: Pre-emergence herbicidal activity, glasshouse pot test; settings: Alopecurus myosuroides, 312 h, Rate 250 g/ha, evaluated after 13 days, read-out: Pre-emergence activity ALOMY (100=total damage to plant; 0=no damage to plant)
In short: (§1)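 After sowing in standard soil, pots were cultivated for one day (pre-emergence) or eight days (post-emergence), then sprayed. Plants were watered twice daily in the glasshouse, and damage was rated 13 days after treatment, 0 being none and 100 total.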

[2] = system: Avena fatua (AVEFA); test: as above; settings: Avena fatua, 312 h, Rate 250 g/ha, evaluated after 13 days, read-out: Pre-emergence activity AVEFA (100=total damage to plant; 0=no damage to plant)
In short: as §1

[3] = system: Echinochloa crus-galli (ECHCG); test: as above; settings: Echinochloa crus-galli, 312 h, Rate 250 g/ha, evaluated after 13 days, read-out: Pre-emergence activity ECHCG (100=total damage to plant; 0=no damage to plant)
In short: as §1

[4] = system: Lolium perenne (LOLPE); test: as above; settings: Lolium perenne, 312 h, Rate 250 g/ha, evaluated after 13 days, read-out: Pre-emergence activity LOLPE (100=total damage to plant; 0=no damage to plant)
In short: as §1

[5] = system: Alopecurus myosuroides (ALOMY); test: Post-emergence herbicidal activity, glasshouse pot test; settings: Alopecurus myosuroides, 312 h, rate 250 g/ha, evaluated after 13 days, read-out: Post-emergence activity ALOMY (100=total damage to plant; 0=no damage to plant)
In short: as §1

[6] = system: Avena fatua (AVEFA); test: as above; settings: Avena fatua, 312 h, rate 250 g/ha, evaluated after 13 days, read-out: Post-emergence activity AVEFA (100=total damage to plant; 0=no damage to plant)
In short: as §1

[7] = system: Echinochloa crus-galli (ECHCG); test: as above; settings: Echinochloa crus-galli, 312 h, rate 250 g/ha, evaluated after 13 days, read-out: Post-emergence activity ECHCG (100=total damage to plant; 0=no damage to plant)
In short: as §1

[8] = system: Lolium perenne (LOLPE); test: as above; settings: Lolium perenne, 312 h, rate 250 g/ha, evaluated after 13 days, read-out: Post-emergence activity LOLPE (100=total damage to plant; 0=no damage to plant)
In short: as §1

| Compound | pest or weed control at 250 g/ha ([1]; pre-emergence spray) [%] | pest or weed control at 250 g/ha ([2]; pre-emergence spray) [%] | pest or weed control at 250 g/ha ([3]; pre-emergence spray) [%] | pest or weed control at 250 g/ha ([4]; pre-emergence spray) [%] | pest or weed control at 250 g/ha ([5]; glasshouse) [%] | pest or weed control at 250 g/ha ([6]; glasshouse) [%] | pest or weed control at 250 g/ha ([7]; glasshouse) [%] | pest or weed control at 250 g/ha ([8]; glasshouse) [%] | pest or weed control at 250 g/ha ([1]; pre-emergence) [%] | pest or weed control at 250 g/ha ([2]; pre-emergence) [%] | pest or weed control at 250 g/ha ([3]; pre-emergence) [%] | pest or weed control at 250 g/ha ([4]; pre-emergence) [%] | pest or weed control at 250 g/ha [5] [%] | pest or weed control at 250 g/ha [6] [%] | pest or weed control at 250 g/ha [7] [%] | pest or weed control at 250 g/ha [8] [%] |
| --- | --- | --- | --- | --- | --- | --- | --- | --- | --- | --- | --- | --- | --- | --- | --- | --- |
| CCc1ccc(Oc2ccc(C(F)(F)F)c(C#N)c2)cc1C1=C(O)[C@@H]2CC[C@](C)(C1=O)C2(C)C [Example A-323] | 70 | 80 | 100 | 100 | 60 | 80 | 90 | 70 | – | – | – | – | – | – | – | – |
| CCc1ccc(Oc2ccc(Cl)cc2Cl)cc1C1=C(O)CC(C)(C)CC1=O [Example A-71] | 30 | 0 | 90 | 40 | 60 | 30 | 90 | 60 | – | – | – | – | – | – | – | – |
| CCc1ccc(Oc2ccc(Br)cc2C)cc1C1=C(O)C(C)(C)OC(C)(C)C1=O [Example A-12] | 0 | 0 | 0 | 0 | 20 | 0 | 70 | 50 | – | – | – | – | – | – | – | – |
| CCc1ccc(Oc2ccc(C(F)(F)F)cc2Br)cc1C1=C(O)C(C)(C)OC(C)(C)C1=O [Example A-78] | 100 | 80 | 100 | 100 | 100 | 90 | 90 | 90 | – | – | – | – | – | – | – | – |
| CCc1ccc(Oc2ccc(Br)cc2F)cc1C1=C(O)[C@@H]2CC[C@](C)(C1=O)C2(C)C [Example A-238] | 60 | 40 | 100 | 90 | 70 | 90 | 100 | 90 | – | – | – | – | – | – | – | – |
| CCc1ccc(Oc2ncc(Cl)cc2Cl)cc1C1=C(O)[C@H]2CC[C@H](C2)C1=O [Example A-336] | 90 | 80 | 100 | 100 | 90 | 80 | 100 | 100 | – | – | – | – | – | – | – | – |
| CCc1ccc(Oc2cc(Cl)c(Cl)nn2)cc1C1=C(O)C(C)(C)OC(C)(C)C1=O [Example A-129] | 10 | 0 | 30 | 10 | 10 | 10 | 30 | 10 | – | – | – | – | – | – | – | – |
| CCc1ccc(Oc2ccnc(Cl)c2)cc1C1=C(O)C(C)(C)OC(C)(C)C1=O [Example A-72] | 60 | 30 | 90 | 70 | 60 | 50 | 90 | 40 | – | – | – | – | – | – | – | – |
| CCc1ccc(Oc2nc3ccc([N+](=O)[O-])cc3s2)cc1C1=C(O)[C@H]2CC[C@H](C2)C1=O [Example A-342] | 90 | 60 | 100 | 100 | 60 | 70 | 100 | 60 | – | – | – | – | – | – | – | – |
| CCc1ccc(Oc2nc3ccc(OC)cc3s2)cc1C1=C(O)[C@@H]2CC[C@](C)(C1=O)C2(C)C [Example A-326] | 30 | 10 | 70 | 90 | 30 | 90 | 100 | 90 | – | – | – | – | – | – | – | – |
| CCc1ccc(Oc2cnc3ccc(Br)cc3n2)cc1C1=C(O)CC2(CCOCC2)CC1=O [Example A-305] | 80 | 60 | 100 | 90 | 100 | 100 | 100 | 100 | – | – | – | – | – | – | – | – |
| CCc1ccc(Oc2cnc3cc(F)ccc3n2)cc1C1=C(O)CC2(CCOCC2)CC1=O [Example A-311] | 90 | 100 | 100 | 100 | 100 | 100 | 100 | 100 | – | – | – | – | – | – | – | – |
| CCc1ccc(Oc2ncc(Br)cn2)cc1C1=C(O)CC2(CCOCC2)CC1=O [Example A-310] | 100 | 50 | 100 | 70 | 100 | 80 | 100 | 90 | – | – | – | – | – | – | – | – |
| CCc1ccc(Oc2nc3cc(OC)ccc3s2)cc1C1=C(O)C(C)(C)OC(C)(C)C1=O [Example A-217] | 30 | 0 | 40 | 60 | 60 | 50 | 70 | 60 | – | – | – | – | – | – | – | – |
| CCc1ccc(Oc2ncc(Br)cn2)cc1C1=C(O)C(C)(C)OC(C)(C)C1=O [Example A-109] | 80 | 70 | 100 | 80 | 90 | 90 | 100 | 90 | – | – | – | – | – | – | – | – |
| CCc1ccc(Oc2cc(C)c(Cl)nn2)cc1C1=C(O)C(C)(C)OC(C)(C)C1=O [Example A-121] | 10 | 0 | 10 | 0 | 10 | 0 | 50 | 20 | – | – | – | – | – | – | – | – |
| CCc1ccc(Oc2ccc(C(F)(F)F)cc2[N+](=O)[O-])cc1C1=C(O)[C@@H]2CC[C@](C)(C1=O)C2(C)C [Example A-327] | 70 | 20 | 100 | 90 | 80 | 90 | 100 | 70 | – | – | – | – | – | – | – | – |
| CC1(C)OC(C)(C)C(O)=C(c2cc(Oc3nc4ccc(C(F)(F)F)cc4s3)ccc2C2CC2)C1=O [Example A-370] | – | – | – | – | – | – | – | – | 50 | 30 | 70 | 90 | 90 | 100 | 100 | 80 |
| CCc1ccc(Oc2cc(Cl)c3ccccc3n2)cc1C1=C(O)C(C)(C)OC(C)(C)C1=O [Example A-251] | 40 | 20 | 100 | 80 | 80 | 30 | 100 | 0 | – | – | – | – | – | – | – | – |
